Several values for one entry are separate records, joined by “and”; a condition that tells them apart may be missing. Equal values may be shown once.
System: 556581-035-R-J1 tumor spheroid viability, % test/control
Experiment: Anticancer human tumor 556581-035-R-J1 patient-derived ovarian carcinoma cell line growth inhibition
Conditions: spheroids with HUVEC and MSC; for viability, T/C: stronger effect = lower value; active = viability on the fitted dose curve at most 10% of control; inactive = the rest
In short: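 Single agents and combinations were tested on spheroids built from tumor cells plus HUVEC and hMSC, at half-log dilutions starting at or near clinical Cmax, else 10 microM; final DMSO 0.25% (v/v).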

[1] = curve of first compound, second compound 30 pM
[2] = curve of first compound, second compound 94.9 pM
[3] = curve of first compound, second compound 0.0003 µM
[4] = curve of first compound, second compound 0.000949 µM
[5] = curve of first compound, second compound 0.003 µM
[6] = second compound 30 pM, first compound 0.00949 µM
[7] = second compound 30 pM, first compound 0.03 µM
[8] = second compound 30 pM, first compound 0.0949 µM
[9] = second compound 30 pM, first compound 0.3 µM
[10] = second compound 30 pM, first compound 0.949 µM
[11] = second compound 30 pM, first compound 3 µM
[12] = second compound 94.9 pM, first compound 0.00949 µM
[13] = second compound 94.9 pM, first compound 0.03 µM
[14] = second compound 94.9 pM, first compound 0.0949 µM
[15] = second compound 94.9 pM, first compound 0.3 µM
[16] = second compound 94.9 pM, first compound 0.949 µM
[17] = second compound 94.9 pM, first compound 3 µM
[18] = second compound 0.0003 µM, first compound 0.00949 µM
[19] = second compound 0.0003 µM, first compound 0.03 µM
[20] = second compound 0.0003 µM, first compound 0.0949 µM
[21] = second compound 0.0003 µM, first compound 0.3 µM
[22] = second compound 0.0003 µM, first compound 0.949 µM
[23] = second compound 0.0003 µM, first compound 3 µM
[24] = second compound 0.000949 µM, first compound 0.00949 µM
[25] = second compound 0.000949 µM, first compound 0.03 µM
[26] = second compound 0.000949 µM, first compound 0.0949 µM
[27] = second compound 0.000949 µM, first compound 0.3 µM
[28] = second compound 0.000949 µM, first compound 0.949 µM
[29] = second compound 0.000949 µM, first compound 3 µM
[30] = second compound 0.003 µM, first compound 0.00949 µM
[31] = second compound 0.003 µM, first compound 0.03 µM
[32] = second compound 0.003 µM, first compound 0.0949 µM
[33] = second compound 0.003 µM, first compound 0.3 µM
[34] = second compound 0.003 µM, first compound 0.949 µM
[35] = second compound 0.003 µM, first compound 3 µM
[36] = second compound 30 pM, first compound 0.0316 µM
[37] = second compound 30 pM, first compound 0.1 µM
[38] = second compound 30 pM, first compound 0.316 µM
[39] = second compound 30 pM, first compound 1 µM
[40] = second compound 30 pM, first compound 3.16 µM
[41] = second compound 30 pM, first compound 10 µM
[42] = second compound 94.9 pM, first compound 0.0316 µM
[43] = second compound 94.9 pM, first compound 0.1 µM
[44] = second compound 94.9 pM, first compound 0.316 µM
[45] = second compound 94.9 pM, first compound 1 µM
[46] = second compound 94.9 pM, first compound 3.16 µM
[47] = second compound 94.9 pM, first compound 10 µM
[48] = second compound 0.0003 µM, first compound 0.0316 µM
[49] = second compound 0.0003 µM, first compound 0.1 µM
[50] = second compound 0.0003 µM, first compound 0.316 µM
[51] = second compound 0.0003 µM, first compound 1 µM
[52] = second compound 0.0003 µM, first compound 3.16 µM
[53] = second compound 0.0003 µM, first compound 10 µM
[54] = second compound 0.000949 µM, first compound 0.0316 µM
[55] = second compound 0.000949 µM, first compound 0.1 µM
[56] = second compound 0.000949 µM, first compound 0.316 µM
[57] = second compound 0.000949 µM, first compound 1 µM
[58] = second compound 0.000949 µM, first compound 3.16 µM
[59] = second compound 0.000949 µM, first compound 10 µM
[60] = second compound 0.003 µM, first compound 0.0316 µM
[61] = second compound 0.003 µM, first compound 0.1 µM
[62] = second compound 0.003 µM, first compound 0.316 µM
[63] = second compound 0.003 µM, first compound 1 µM
[64] = second compound 0.003 µM, first compound 3.16 µM
[65] = second compound 0.003 µM, first compound 10 µM
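Also: spheroids exposed to compounds for 7 days before viability read.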

Cc1sc2c(c1C)C(c1ccc(Cl)cc1)=NC(CC(=O)Nc1ccc(O)cc1)c1nnc(C)n1-2 (configuration not stated) + COc1cc2c(cc1O)CCNC21CSC2c3c(OC(C)=O)c(C)c4c(c3C(COC1=O)N1C(O)C3Cc5cc(C)c(OC)c(O)c5C(C21)N3C)OCO4
< 0.00949 µM: IC50 [4] | IC50 [5]
inactive: viability, T/C [6] 107% | viability, T/C [7] 101% | viability, T/C [8] 83.8% | viability, T/C [9] 80.1% | viability, T/C [10] 72.1% | viability, T/C [11] 63.5% | viability, T/C [12] 112% | viability, T/C [13] 102% | viability, T/C [14] 87.4% | viability, T/C [15] 75.8% | viability, T/C [16] 71% | viability, T/C [17] 54.9% | viability, T/C [18] 90.1% | viability, T/C [19] 88.2% | viability, T/C [20] 80.3% | viability, T/C [21] 64.4% | viability, T/C [22] 47.4% | viability, T/C [23] 35.4% | viability, T/C [24] 21.7% | viability, T/C [25] 18.8% | viability, T/C [26] 15.9%
0.782 µM: IC50 [3]
> 3 µM: IC50 [1] | IC50 [2]
active: viability, T/C [27] 5.84% | viability, T/C [28] 1.81% | viability, T/C [29] 0.31% | viability, T/C [30] 0.52% | viability, T/C [31] 0.55% | viability, T/C [32] 0.44% | viability, T/C [33] 0.36% | viability, T/C [34] 0.97% | viability, T/C [35] 1.24%

[2H]c1nc(C)nc([2H])c1-c1cc(NC[C@@H](C)c2cccc3c(C(=O)NC)ccnc23)ncn1 + COc1cc2c(cc1O)CCNC21CSC2c3c(OC(C)=O)c(C)c4c(c3C(COC1=O)N1C(O)C3Cc5cc(C)c(OC)c(O)c5C(C21)N3C)OCO4
> 10 µM: IC50 [1] | IC50 [2] | IC50 [3]
< 0.0316 µM: IC50 [4] | IC50 [5]
active: viability, T/C [60] 1.6% | viability, T/C [61] 0.73% | viability, T/C [62] 0.75% | viability, T/C [63] 0.97% | viability, T/C [64] 1.05% | viability, T/C [65] 1.32%
inactive: viability, T/C [36] 105% | viability, T/C [37] 119% | viability, T/C [38] 116% | viability, T/C [39] 120% | viability, T/C [40] 110% | viability, T/C [41] 116% | viability, T/C [42] 113% | viability, T/C [43] 118% | viability, T/C [44] 108% | viability, T/C [45] 113% | viability, T/C [46] 118% | viability, T/C [47] 125% | viability, T/C [48] 101% | viability, T/C [49] 110% | viability, T/C [50] 102% | viability, T/C [51] 104% | viability, T/C [52] 108% | viability, T/C [53] 109% | viability, T/C [54] 40.9% | viability, T/C [55] 46.4% | viability, T/C [56] 42.9% | viability, T/C [57] 46.3% | viability, T/C [58] 33.9% | viability, T/C [59] 31.1%

Cn1ncnc1[C@H]1c2n[nH]c(=O)c3cc(F)cc(c23)N[C@@H]1c1ccc(F)cc1 + COc1cc2c(cc1O)CCNC21CSC2c3c(OC(C)=O)c(C)c4c(c3C(COC1=O)N1C(O)C3Cc5cc(C)c(OC)c(O)c5C(C21)N3C)OCO4
inactive: viability, T/C [6] 100% | viability, T/C [7] 96.7% | viability, T/C [8] 93.5% | viability, T/C [9] 86.7% | viability, T/C [10] 74.5% | viability, T/C [11] 58.7% | viability, T/C [12] 99.7% | viability, T/C [13] 97.7% | viability, T/C [14] 89.5% | viability, T/C [15] 84.9% | viability, T/C [16] 69.7% | viability, T/C [17] 51.7% | viability, T/C [18] 85.6% | viability, T/C [19] 91.8% | viability, T/C [20] 84.1% | viability, T/C [21] 79.1% | viability, T/C [22] 68.7% | viability, T/C [23] 43.4% | viability, T/C [24] 39.6% | viability, T/C [25] 33.9% | viability, T/C [26] 31.8% | viability, T/C [27] 28.1% | viability, T/C [28] 7.63%
active: viability, T/C [29] 1.54% | viability, T/C [30] 0.96% | viability, T/C [31] 0.99% | viability, T/C [32] 0.97% | viability, T/C [33] 1.34% | viability, T/C [34] 1.27% | viability, T/C [35] 1.68%
2.23 µM: IC50 [3]
> 3 µM: IC50 [1] | IC50 [2]
< 0.00949 µM: IC50 [4] | IC50 [5]

Cn1ncnc1[C@H]1c2n[nH]c(=O)c3cc(F)cc(c23)N[C@@H]1c1ccc(F)cc1
> 3 µM: IC50 (curve of compound)
inactive: viability, T/C (compound 0.00949 µM) 110% and 95.9% and 100% | viability, T/C (compound 0.03 µM) 107% and 97.1% and 105% | viability, T/C (compound 0.0949 µM) 102% and 89.2% and 95.8% | viability, T/C (compound 0.3 µM) 97.6% and 80.2% and 83.6% | viability, T/C (compound 0.949 µM) 77.9% and 69.9% and 76% | viability, T/C (compound 3 µM) 60.8% and 52.1% and 56.5%

CC(C)n1c(=O)n(C)c2cnc3cc(F)c(-c4ccc(OCCCN5CCCCC5)nc4)cc3c21 + COc1cc2c(cc1O)CCNC21CSC2c3c(OC(C)=O)c(C)c4c(c3C(COC1=O)N1C(O)C3Cc5cc(C)c(OC)c(O)c5C(C21)N3C)OCO4
active: viability, T/C [60] 0.76% | viability, T/C [61] 1.38% | viability, T/C [62] 0.61% | viability, T/C [63] 0.59% | viability, T/C [64] 0.42% | viability, T/C [65] 0.65%
< 0.0316 µM: IC50 [4] | IC50 [5]
inactive: viability, T/C [36] 86.3% | viability, T/C [37] 97.8% | viability, T/C [38] 96.5% | viability, T/C [39] 91% | viability, T/C [40] 89.2% | viability, T/C [41] 73.7% | viability, T/C [42] 94.9% | viability, T/C [43] 98% | viability, T/C [44] 95.6% | viability, T/C [45] 95.6% | viability, T/C [46] 86% | viability, T/C [47] 66.6% | viability, T/C [48] 96.1% | viability, T/C [49] 96.8% | viability, T/C [50] 98.8% | viability, T/C [51] 97.7% | viability, T/C [52] 84.4% | viability, T/C [53] 62.3% | viability, T/C [54] 44.8% | viability, T/C [55] 35% | viability, T/C [56] 37.1% | viability, T/C [57] 48.5% | viability, T/C [58] 39.1% | viability, T/C [59] 17.6%
> 10 µM: IC50 [1] | IC50 [2] | IC50 [3]
